In ChEMBL document CHEMBL3885881, “DrugMatrix”:

Species: Rattus norvegicus
Assay: DrugMatrix - Regimen: Daily Repeat
Assay type: toxicity, organism-based, Sprague-Dawley
Parameters: regimen Daily Repeat, gender Male, age 6-8 weeks
Conditions: in vivo, po, 800 mg/kg, route oral GAVAGE, dose level High, vehicle .5 % CMC; for BASOPHIL / EOSINOPHIL / ERYTHROCYTE COUNT / HEMATOCRIT / HEMOGLOBIN / LEUKOCYTE COUNT / LYMPHOCYTE / MEAN CORPUSCULAR HEMOGLOBIN / MEAN CORPUSCULAR HEMOGLOBIN CONCENTRATION / MEAN CORPUSCULAR VOLUME / MONOCYTE / NEUTROPHIL / PLATELET COUNT: tissue Blood; for ALANINE AMINOTRANSFERASE / ALBUMIN / ALKALINE PHOSPHATASE / ASPARTATE AMINOTRANSFERASE / BLOOD UREA NITROGEN / CARBON DIOXIDE / CHLORIDE / CHOLESTEROL / CREATINE PHOSPHOKINASE / CREATININE / GLUCOSE / LACTATE DEHYDROGENASE / LIPASE / PHOSPHORUS / POTASSIUM / SODIUM / TOTAL BILIRUBIN / TOTAL PROTEIN / URIC ACID: tissue Plasma

With `Oc1ccc(O)cc1` [HYDROQUINONE] the BASOPHIL (72 h, time 3 day) was 0.25%, the EOSINOPHIL (72 h, time 3 day) was 0.45% and the “ERYTHROCYTE COUNT” value (72 h, time 3 day) was 6.72 x10E6/uL. For the same molecule, the HEMATOCRIT (72 h, time 3 day) was 44.05%, the HEMOGLOBIN (72 h, time 3 day) was 14.5 G/DL and the “LEUKOCYTE COUNT” value (72 h, time 3 day) was 7.7 x10E3/uL. The LYMPHOCYTE (72 h, time 3 day) was 89.1%, the “MEAN CORPUSCULAR HEMOGLOBIN” value (72 h, time 3 day) was 21.6 pg and the “MEAN CORPUSCULAR HEMOGLOBIN CONCENTRATION” value (72 h, time 3 day) was 32.9 G/DL. For the same molecule, the “MEAN CORPUSCULAR VOLUME” value (72 h, time 3 day) was 65.5 fL, the MONOCYTE (72 h, time 3 day) was 1.5% and the NEUTROPHIL (72 h, time 3 day) was 7.45%. The “PLATELET COUNT” value (72 h, time 3 day) was 1149.5 x10E3/uL, the “ALANINE AMINOTRANSFERASE” value (72 h, time 3 day) was 48 u/L and the ALBUMIN (72 h, time 3 day) was 4.2 G/DL. The “ALKALINE PHOSPHATASE” value (72 h, time 3 day) was 309.5 u/L, the “ASPARTATE AMINOTRANSFERASE” value (72 h, time 3 day) was 52 u/L and the “BLOOD UREA NITROGEN” value (72 h, time 3 day) was 15.5 mg/dL. The “CARBON DIOXIDE” value (72 h, time 3 day) was 23 mmol/L, the CHLORIDE (72 h, time 3 day) was 107.5 MEQ/L and the CHOLESTEROL (72 h, time 3 day) was 80.5 mg/dL. For the same molecule, the “CREATINE PHOSPHOKINASE” value (72 h, time 3 day) was 183 u/L, the CREATININE (72 h, time 3 day) was 0.45 mg/dL and the GLUCOSE (72 h, time 3 day) was 164 mg/dL. The “LACTATE DEHYDROGENASE” value (72 h, time 3 day) was 102 u/L, the LIPASE (72 h, time 3 day) was 23.5 u/L and the PHOSPHORUS (72 h, time 3 day) was 13.75 mg/dL. The POTASSIUM (72 h, time 3 day) was 6.4 MEQ/L, the SODIUM (72 h, time 3 day) was 150 MEQ/L and the “TOTAL BILIRUBIN” value (72 h, time 3 day) was 0.3 mg/dL. The “TOTAL PROTEIN” value (72 h, time 3 day) was 6.5 G/DL, the “URIC ACID” value (72 h, time 3 day) was 2.25 mg/dL and the BASOPHIL (120 h, time 5 day) was 0.2%. For the same molecule, the EOSINOPHIL (120 h, time 5 day) was 0.3%, the “ERYTHROCYTE COUNT” value (120 h, time 5 day) was 6.45 x10E6/uL and the HEMATOCRIT (120 h, time 5 day) was 41.5%. For the same molecule, the HEMOGLOBIN (120 h, time 5 day) was 13.7 G/DL, the “LEUKOCYTE COUNT” value (120 h, time 5 day) was 10.53 x10E3/uL and the LYMPHOCYTE (120 h, time 5 day) was 89%. The “MEAN CORPUSCULAR HEMOGLOBIN” value (120 h, time 5 day) was 21.3 pg, the “MEAN CORPUSCULAR HEMOGLOBIN CONCENTRATION” value (120 h, time 5 day) was 33.1 G/DL and the “MEAN CORPUSCULAR VOLUME” value (120 h, time 5 day) was 64.4 fL. The MONOCYTE (120 h, time 5 day) was 1.6%, the NEUTROPHIL (120 h, time 5 day) was 6.2% and the “PLATELET COUNT” value (120 h, time 5 day) was 1513 x10E3/uL. The “ALANINE AMINOTRANSFERASE” value (120 h, time 5 day) was 36.5 u/L, the ALBUMIN (120 h, time 5 day) was 4.2 G/DL and the “ALKALINE PHOSPHATASE” value (120 h, time 5 day) was 411 u/L. The “ASPARTATE AMINOTRANSFERASE” value (120 h, time 5 day) was 55 u/L, the “BLOOD UREA NITROGEN” value (120 h, time 5 day) was 15.5 mg/dL and the “CARBON DIOXIDE” value (120 h, time 5 day) was 27 mmol/L. For the same molecule, the CHLORIDE (120 h, time 5 day) was 105 MEQ/L, the CHOLESTEROL (120 h, time 5 day) was 70.5 mg/dL and the “CREATINE PHOSPHOKINASE” value (120 h, time 5 day) was 206 u/L. For the same molecule, the CREATININE (120 h, time 5 day) was 0.25 mg/dL, the GLUCOSE (120 h, time 5 day) was 163 mg/dL and the “LACTATE DEHYDROGENASE” value (120 h, time 5 day) was 87.5 u/L. The LIPASE (120 h, time 5 day) was 20 u/L, the PHOSPHORUS (120 h, time 5 day) was 12.6 mg/dL and the POTASSIUM (120 h, time 5 day) was 6.1 MEQ/L. For the same molecule, the SODIUM (120 h, time 5 day) was 148 MEQ/L, the “TOTAL BILIRUBIN” value (120 h, time 5 day) was 0.55 mg/dL and the “TOTAL PROTEIN” value (120 h, time 5 day) was 6.5 G/DL. The “URIC ACID” value (120 h, time 5 day) was 2.05 mg/dL, the BASOPHIL ([…], time 14 day) was 0.8% and the EOSINOPHIL ([…], time 14 day) was 0.2%. The “ERYTHROCYTE COUNT” value ([…], time 14 day) was 6.87 x10E6/uL, the HEMATOCRIT ([…], time 14 day) was 42.85% and the HEMOGLOBIN ([…], time 14 day) was 14.03 G/DL. For the same molecule, the “LEUKOCYTE COUNT” value ([…], time 14 day) was 14.3 x10E3/uL, the LYMPHOCYTE ([…], time 14 day) was 83.92% and the “MEAN CORPUSCULAR HEMOGLOBIN” value ([…], time 14 day) was 20.45 pg. For the same molecule, the “MEAN CORPUSCULAR HEMOGLOBIN CONCENTRATION” value ([…], time 14 day) was 32.83 G/DL, the “MEAN CORPUSCULAR VOLUME” value ([…], time 14 day) was 62.4 fL and the MONOCYTE ([…], time 14 day) was 1.9%. For the same molecule, the NEUTROPHIL ([…], time 14 day) was 11.55%, the “PLATELET COUNT” value ([…], time 14 day) was 1262 x10E3/uL and the “ALANINE AMINOTRANSFERASE” value ([…], time 14 day) was 50 u/L. The ALBUMIN ([…], time 14 day) was 4.45 G/DL, the “ALKALINE PHOSPHATASE” value ([…], time 14 day) was 349.75 u/L and the “ASPARTATE AMINOTRANSFERASE” value ([…], time 14 day) was 70.25 u/L. The “BLOOD UREA NITROGEN” value ([…], time 14 day) was 16.25 mg/dL, the “CARBON DIOXIDE” value ([…], time 14 day) was 30.25 mmol/L and the CHLORIDE ([…], time 14 day) was 103.5 MEQ/L. The CHOLESTEROL ([…], time 14 day) was 84.5 mg/dL, the “CREATINE PHOSPHOKINASE” value ([…], time 14 day) was 254.25 u/L and the CREATININE ([…], time 14 day) was 0.4 mg/dL. For the same molecule, the GLUCOSE ([…], time 14 day) was 161.5 mg/dL, the “LACTATE DEHYDROGENASE” value ([…], time 14 day) was 60.75 u/L and the LIPASE ([…], time 14 day) was 17.25 u/L. The PHOSPHORUS ([…], time 14 day) was 12.07 mg/dL, the POTASSIUM ([…], time 14 day) was 6.7 MEQ/L and the SODIUM ([…], time 14 day) was 150.25 MEQ/L. For the same molecule, the “TOTAL BILIRUBIN” value ([…], time 14 day) was 0.55 mg/dL, the “TOTAL PROTEIN” value ([…], time 14 day) was 6.97 G/DL and the “URIC ACID” value ([…], time 14 day) was 1 mg/dL.
